Key:
CEM-TK(-) [1] = assay: (§1) Tested in vitro for the antiviral activity in CEM/TK- cells infected with HIV-1; assay type: functional; conditions: Homo sapiens
CEM-TK(-) [2] = assay: as §1; assay type: functional, cell-based; conditions: Homo sapiens
CEM-SS [3] = assay: (§2) Tested in vitro for the antiviral activity in CEM-SS cells infected with HIV-1; assay type: functional, cell-based; conditions: Homo sapiens
CEM-SS [4] = assay: as §2; assay type: functional; conditions: Homo sapiens
MT4 [5] = assay: (§3) Tested in vitro for the antiviral activity in MT-4 cells infected with HIV-1; assay type: functional; conditions: Homo sapiens
MT4 [6] = assay: as §3; assay type: functional, cell-based; conditions: Homo sapiens
MT4 [7] = assay: as §3; assay type: functional, Homo sapiens
[8] = (§4) Tested in vitro for the antiviral activity in PBM cells infected with HIV-1; assay type: functional, cell-based; conditions: Homo sapiens, PBMC
[9] = as §4; assay type: functional; conditions: Homo sapiens, PBMC
CEM-TK(-) [10] = assay: as §1; assay type: functional, Homo sapiens
CEM-SS [11] = assay: as §2; assay type: functional, Homo sapiens

Compound	CC50 (CEM-TK(-) [1]) [µM]	EC50 (CEM-TK(-) [2]) [µM]	EC50 (CEM-SS [3]) [nM]	CC50 (CEM-SS [4]) [µM]	CC50 (MT4 [5]) [µM]	EC50 (MT4 [6]) [nM]	Reduction (MT4 [7]) [%]	EC50 [8] [nM]	CC50 [9] [µM]	Reduction (CEM-TK(-) [10]) [%]	Reduction (CEM-SS [11]) [%]
CC(=O)SCCOP(=O)(OCCSC(C)=O)OCC1C=CC(n2cc(C)c(=O)[nH]c2=O)O1 (stereo not given)	60	0.012	6	68	> 100	16	19	7	22	–	–
Cc1cn([C@H]2C=C[C@@H](CO)O2)c(=O)[nH]c1=O [STAVUDINE]	> 100	10	59	> 100	> 100	280	10	50	42	6	21
